# Experimental data from patent US12678423B2, “Therapeutic agent for amyotrophic lateral sclerosis and composition for treatment” (KEIO UNIVERSITY, priority 2016, dated 2026).
# How the values were obtained:
# Format in all cases: cell-based, human
# [1] = test system: motor neurons induced to differentiate from iPS cells derived from ALS patients (FUS-ALS) having a mutation in FUS; assay: Neurite length in late stage ALS disease, FUS-ALS (Example I-9); settings: final concentration 1 μM, added days 50 to 62 from start of differentiation induction, FIG. 14
# Procedure: (§1) The efficacy of ropinirole was evaluated in the same manner as in Example I-8, except that the timing of adding ropinirole was changed to days 50 to 62 from the start of the differentiation induction of each iPS cell. It is assumed that days 50 to 62 after the start of induction of differentiation correspond to the late stage of the ALS disease.
# (§2) Specifically, ropinirole was added to a medium of motor neurons induced to differentiate from iPS cells derived from ALS patients (FUS-ALS) having a mutation in FUS and motor neurons induced to differentiate from iPS cells derived from ALS patients (TDP-43-ALS) having a mutation in TDP-43 and the changes over time in the neurite length were measured. The measurement of neurite length was carried out in the same manner as in Example I-2. Ropinirole was added to the medium at a final concentration of 1 μM.
# (§3) FIG. 14(a) is a graph showing the results of measurement of the changes over time in the neurite length of each motor neuron. In FIG. 14(a), the vertical axis represents the neurite length (relative value), the horizontal axis represents the number of days of culturing from the start of differentiation induction, and “+ROPI” represents the result of adding ropinirole to the medium. In addition, FIG. 14(b) is a graph enlarging the boxed portion of the graph of FIG. 14(a). […]
# [2] = test system: motor neurons induced to differentiate from iPS cells derived from SALS patients; assay: Neurite length, sporadic ALS model (Example III-1); settings: final concentration 1 μM, days 35 to 40, measured on day 40, FIG. 10
# Excerpt: In the same manner as in Example I-1, iPS cells derived from sporadic ALS (may be referred to below as “SALS”) patients were differentiated into motor neurons. All the iPS cells used were derived from dermal fibroblasts. Below, each differentiated motor neuron is identified by the patient number from whom the neuron was derived.
# In the same manner as in Example II-1, iPS cells derived from sporadic ALS (SALS) patients were induced to differentiate into motor neurons, and then ropinirole with a final concentration of 1 μM was added to the medium. More specifically, for the period of days 35 to 40 from the start of differentiation induction, ropinirole having a final concentration of 1 μM was added to the medium. In addition, a group for which ropinirole was not added to the medium was prepared as a control. In addition, for comparison, iPS cells derived from healthy subjects were differentiated into motor neurons in the same manner as in Example I-1. No ropinirole was added to the medium of these motor neurons. As the iPS cells derived from a healthy subject, the same cells as used in Example I-1 were used.
# Subsequently, on day 40 from the start of differentiation induction, the neurite length was measured for each motor neuron in the same manner as in Example I-2.
# FIG. 10 is a graph showing measurement results of the neurite length of each motor neuron. […]
# [3] = test system: motor neurons induced to differentiate from iPS cells derived from ALS patients (TDP-43-ALS) having a mutation in TDP-43; assay: Neurite length in late stage ALS disease, TDP-43-ALS (Example I-9); settings: final concentration 1 μM, added days 50 to 62 from start of differentiation induction, FIG. 14
# Procedure: as §1, §2, §3
# [4] = test system: motor neurons induced to differentiate from iPS cells derived from ALS patients (TDP-43-ALS) having a mutation in TDP-43; assay: Phosphorylated TDP-43 protein inclusion formation, TDP-43-ALS motor neurons
# Excerpt: Therefore, on day 40 from the start of differentiation induction, each differentiation-induced motor neuron in Example I-1 was immunostained and the formation of phosphorylated TDP-43 protein inclusions was examined.
# Using the differentiation-induced motor neurons in Example I-1, drugs which cause the ALS phenotype to be restored were screened from existing drug libraries with the neurite length, ectopic localization of FUS protein, stress granule formation, LDH leakage ratio, CV-caspase 3-positive ratio, phosphorylated TDP-43 protein inclusion formation, and the like as indices.
# As a result of the screening, ropinirole was found as a promising therapeutic agent for ALS. Tables 5 and 6 show the improvement ratio (%) in the ALS phenotype due to adding ropinirole to the medium. Here, ropinirole was added to the medium on days 35 to 40 from the start of the differentiation induction of each iPS cell. Here, it is assumed that days 35 to 40 from the start of differentiation induction correspond to the early stage of the ALS disease.
# (§4) The improvement ratio (%) of the ALS phenotype was calculated by Equation (1).
# (§5) [formula] [In Equation (1), A represents a measurement value of motor neurons induced to differentiate from iPS cells derived from ALS patients in the absence of ropinirole, and B represents a measurement value of motor neurons induced to differentiate from iPS cells derived from ALS patients in the presence of ropinirole, and C represents a measurement value of motor neurons induced to differentiate from iPS cells derived from healthy subjects in the absence of ropinirole.]
# (§6) Subsequently, in the same manner as above, the efficacy in cases of administering lower concentrations of ropinirole was evaluated.
# (§7) Each drug was added to the medium at a final concentration of 10 μM.
# [5] = test system: motor neurons induced to differentiate from iPS cells derived from ALS patients (TDP-43-ALS) having a mutation in TDP-43; assay: LDH leakage ratio, TDP-43-ALS motor neurons
# Procedure: (§8) The leakage amount of LDH into the medium is an indicator of cytotoxicity. For measurement of the LDH leakage ratio, a commercially available kit (model “LDH Cytotoxicity Detection Kit”, Takara Bio Inc.) was used.
# (§9) Here, ropinirole was added to the medium on days 35 to 40 from the start of the differentiation induction of each iPS cell. Here, it is assumed that days 35 to 40 from the start of differentiation induction correspond to the early stage of the ALS disease.
# as §4, §5, §6, §7
# [6] = test system: motor neurons induced to differentiate from iPS cells derived from ALS patients (FUS-ALS) having a mutation in FUS; assay: LDH leakage ratio, FUS-ALS motor neurons
# Procedure: as §8, §9, §4, §5, §6, §7
# [7] = final concentration 0.1 μM, added days 35 to 40
# [8] = final concentration 1 μM, added days 35 to 40
# [9] = final concentration 10 μM, added days 35 to 40
smiles,measurement,setting,value
"CCCN(CCC)CCc1cccc2c1CC(=O)N2 [Ropinirole, 4-(2-di-n-propylaminoethyl)-2(3H)-indole]","Neurite length (changes over time), late stage",[1],neuroprotective action (maintenance of neurite length)
same,Neurite length reduction,[2],significantly suppressed
same,"Neurite length (changes over time), late stage",[3],neuroprotective action (maintenance of neurite length)
same,TDP-43 inclusion formation improvement ratio,[4]; final concentration 0.1 nM,15.3%
same,TDP-43 inclusion formation improvement ratio,[4]; final concentration 1 nM,55.3%
same,TDP-43 inclusion formation improvement ratio,[4]; final concentration 10 nM,60.3%
same,TDP-43 inclusion formation improvement ratio,[4]; [7],56.2%
same,TDP-43 inclusion formation improvement ratio,[4]; [8],69.2%
same,TDP-43 inclusion formation improvement ratio,[4]; [9],74.2%
same,LDH leakage ratio improvement ratio,[5]; final concentration 0.1 nM,10.2%
same,LDH leakage ratio improvement ratio,[5]; final concentration 1 nM,55.2%
same,LDH leakage ratio improvement ratio,[5]; final concentration 10 nM,56.6%
same,LDH leakage ratio improvement ratio,[5]; [7],58.3%
same,LDH leakage ratio improvement ratio,[5]; [8],78.1%
same,LDH leakage ratio improvement ratio,[5]; [9],82.4%
same,LDH leakage ratio improvement ratio,[6]; final concentration 0.1 nM,10.1%
same,LDH leakage ratio improvement ratio,[6]; final concentration 1 nM,31.1%
same,LDH leakage ratio improvement ratio,[6]; final concentration 10 nM,39.4%
same,LDH leakage ratio improvement ratio,[6]; [7],33.5%
same,LDH leakage ratio improvement ratio,[6]; [8],48.0%
same,LDH leakage ratio improvement ratio,[6]; [9],47.6%
